Experimental data as given in US8022091B2, “Triazole derivative” (Taisho Pharmaceutical Co., Ltd., priority 2006, dated 2011).

Legend:
human Edg-1 (S1P1) = molecular target: T1, human Edg-1 (S1P1) (Homo sapiens, UniProt P21453); test: S1P1 binding assay: inhibition of [33P]-S1P binding to membrane fraction of HEK-293 cells transferred with the human Edg-1 (S1P1) gene; conditions: for inhibition at 10 µM: test compound at 10 μM, inhibition of [33P]-S1P binding to the membrane fraction of HEK-293 cells expressing human Edg-1 (S1P1); for IC50: [33P]-S1P 0.1 nM, human Edg-1 (S1P1) HEK-293 membrane fraction, 1 h at 30° C., read-out: IC50 (concentration at which binding in the absence of the test compound was inhibited by 50%)
T1 construct: expressed in transfected cells; host or cells: HEK-293
T1 sequence (P21453 whole entry): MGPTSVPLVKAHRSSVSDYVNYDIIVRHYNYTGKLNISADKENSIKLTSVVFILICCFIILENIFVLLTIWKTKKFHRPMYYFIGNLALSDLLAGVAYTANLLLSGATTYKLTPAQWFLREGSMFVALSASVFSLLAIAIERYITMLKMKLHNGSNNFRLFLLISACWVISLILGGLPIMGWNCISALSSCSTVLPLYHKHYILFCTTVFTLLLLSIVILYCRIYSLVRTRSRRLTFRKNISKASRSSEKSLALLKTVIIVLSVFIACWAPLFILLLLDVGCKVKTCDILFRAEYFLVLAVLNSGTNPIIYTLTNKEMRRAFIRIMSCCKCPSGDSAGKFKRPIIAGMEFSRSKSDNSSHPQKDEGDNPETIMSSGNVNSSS
Outline: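 Membranes from S1P1-transfected HEK-293 cells incubated 1 h at 30° C in pH 7.4 Tris buffer with fatty acid-free BSA, 0.1 nM [33P]-S1P and test compound (0.1% DMSO). Filter-bound radioactivity was counted; inhibition corrected for binding to untransfected-cell membranes, and IC50 derived from concentration series.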

Row | melting point [°C] | inhibition at 10 µM (human Edg-1 (S1P1)) [%] | IC50 (human Edg-1 (S1P1)) [nM] | SMILES
1 | 187 to 187.5 | 95.2 |  | CCn1c(Oc2ccc(F)cc2)nnc1[C@@H](C)NS(=O)(=O)c1ccc(Br)c(Br)c1 [Compound 104]
2 | 121 to 123 | 104 | 2.9 | CCn1c(Oc2cccc(N(C)CCN(C)C)c2)nnc1[C@@H](C)NS(=O)(=O)c1ccc(Cl)c(Cl)c1 [Compound 105]
3 | 132 to 134 | 110 |  | CCn1c(Oc2cccc(OCCN(C)C)c2)nnc1[C@@H](C)NS(=O)(=O)c1ccc(Cl)c(Cl)c1 [Compound 106]
4 | 159 to 162 | 104 | ≤ 10 | CCn1c(Oc2cccc(N(C(C)C)C(C)C)c2)nnc1[C@@H](C)NS(=O)(=O)c1ccc(Cl)c(Cl)c1 [Compound 107]
5 | 175 to 180 | 101 | 18 | CCn1c(Oc2cccc(C3CCN(C(C)C)CC3)c2)nnc1[C@@H](C)NS(=O)(=O)c1ccc(Cl)c(Cl)c1 [Compound 108]
6 | 152 to 153 | 104 | ≤ 35 | CCn1c(Oc2cccc(N3CCN(C)CC3)c2)nnc1[C@@H](C)NS(=O)(=O)c1ccc(F)c(Cl)c1 [Compound 109]
7 | 187.5 to 188.5 | 104 |  | CCn1c(Oc2ccc(F)cc2)nnc1[C@@H](C)NS(=O)(=O)c1ccc(Br)c(C)c1 [Compound 110]
8 | 204 to 205 | 109 | ≤ 10 | CCn1c(Oc2cccc(N3CCN(C)CC3)c2)nnc1[C@@H](C)NS(=O)(=O)c1ccc(Br)c(C)c1 [Compound 111]
9 | 171 to 173 | 99.2 | ≤ 10 | CCn1c(Oc2cccc(N3CCN(C)CC3)c2)nnc1[C@@H](C)NS(=O)(=O)c1ccc(Br)c(Br)c1 [Compound 112]
10 | 183 to 185 | 74.2 |  | CCn1c(Oc2cccc(C(=O)O)c2)nnc1[C@@H](C)NS(=O)(=O)c1ccc(Cl)c(Cl)c1 [Compound 113, 3-[5-[(R)-1-(3,4-Dichlorobenzenesulfonylamino)-ethyl]-4-ethyl-4H-[1,2,4]triazol-3-yloxy]-benzoic acid]
11 | 185 to 186 | 94.5 |  | CCn1c(Oc2cccc(O)c2)nnc1[C@@H](C)NS(=O)(=O)c1ccc(Cl)c(Cl)c1 [Compound 114, 3,4-Dichloro-N-[(R)-1-[4-ethyl-5-(3-hydroxyphenoxy)-4H-[1,2,4]triazol-3-yl]-ethyl]-benzenesulfonamide]
12 | 192 to 195 | 83.1 |  | CCn1c(Nc2ccc(F)cc2)nnc1[C@@H](C)NS(=O)(=O)c1ccc(Cl)c(Cl)c1 [Compound 116]
13 | 153.5 to 155.5 | 87.1 |  | CCOc1ccc2c(Oc3nnc([C@@H](C)NS(=O)(=O)c4ccc(Cl)c(Cl)c4)n3CC)csc2c1 [Compound 117]
14 | 211.5 to 216.5 | 93 | 1.7 | CCn1c(Oc2cccc(N3CCN(C)CC3)c2)nnc1[C@@H](C)NS(=O)(=O)c1ccc2c(Cl)cccc2c1 [Compound 120]
15 | 195.5 to 198.5 | 103 | ≤ 10 | CCn1c(Oc2cccc(N3CCN(C)CC3)c2)nnc1[C@@H](C)NS(=O)(=O)c1ccc2ccccc2c1 [Compound 121]
16 | 167 to 170 | 81.9 | ≤ 35 | CCn1c(Oc2ccc(F)cc2)nnc1[C@@H](C)NS(=O)(=O)c1ccc2ccccc2c1 [Compound 122]
17 | 162 to 165 | 97.1 | ≤ 35 | C[C@@H](NS(=O)(=O)c1ccc(Cl)c(Cl)c1)c1nnc(Oc2cccc(N3CCN(C)CC3)c2)n1C1CC1 [Compound 123]

Row | melting point [°C] | inhibition at 10 µM (human Edg-1 (S1P1)) [%] | IC50 (human Edg-1 (S1P1)) [nM] | SMILES
18 | 178.5 to 180 | 97.4 |  | C[C@@H](NS(=O)(=O)c1ccc(Cl)c(Cl)c1)c1nnc(Oc2ccc(F)cc2)n1C1CC1 [Compound 124]
19 | 253.5 to 254.5 | 94.3 | ≤ 35 | C[C@@H](NS(=O)(=O)c1ccc(Cl)c(Cl)c1)c1nnc(Oc2ccc3cc[nH]c3c2)n1C1CC1 [Compound 125]
20 | 176.5 to 178 | 91.8 |  | CCn1c(Oc2ccc(F)cc2)nnc1[C@@H](C)NS(=O)(=O)c1ccc(C)c(C)c1 [Compound 126]
21 | 182.5 to 183.5 | 90.7 |  | CCn1c(Oc2ccc(F)cc2)nnc1[C@@H](C)NS(=O)(=O)c1ccc(C(F)(F)F)cc1 [Compound 128]
22 | 96 to 104 | 96.8 | 20 | CCn1c(Oc2ccc3cc[nH]c3c2)nnc1[C@@H](C)NS(=O)(=O)c1ccc(C)c(C)c1 [Compound 129]
23 | 107 to 114 | 98.9 | 2.9 | CCn1c(Oc2ccc3cc[nH]c3c2)nnc1[C@@H](C)NS(=O)(=O)c1ccc2ccccc2c1 [Compound 130]
24 | 102 to 110.5 | 97.3 | ≤ 35 | CCn1c(Oc2ccc3cc[nH]c3c2)nnc1[C@@H](C)NS(=O)(=O)c1cc(C)c(Cl)cc1Cl [Compound 131]
25 | 95 to 104 | 99.5 | ≤ 10 | CCn1c(Oc2ccc3cc[nH]c3c2)nnc1[C@@H](C)NS(=O)(=O)c1ccc(C)c(Cl)c1 [Compound 132]
26 | 164 to 169.5 | 101 | ≤ 10 | CCn1c(Oc2cccc(N3CCN(C)CC3)c2)nnc1[C@@H](C)NS(=O)(=O)c1ccc(C)c(Cl)c1 [Compound 133]
27 | 108.5 to 114.5 | 101 | ≤ 35 | CCn1c(Oc2ccc3cc[nH]c3c2)nnc1[C@@H](C)NS(=O)(=O)c1ccc(Cl)c(Cl)c1Cl [Compound 134]
28 | 188.5 to 192 | 101 |  | CCn1c(Oc2ccc3cc[nH]c3c2)nnc1[C@@H](C)NS(=O)(=O)c1cccc(C(F)(F)F)c1 [Compound 135]
29 | 100 to 106 | 96.5 | 8.1 | CCn1c(Oc2ccc3cc[nH]c3c2)nnc1[C@@H](C)NS(=O)(=O)c1ccc(C(F)(F)F)cc1 [Compound 136]
30 | 173.5 to 177 | 102 | ≤ 10 | CCn1c(Oc2ccc(F)cc2)nnc1[C@@H](C)NS(=O)(=O)c1ccc2c(Cl)cccc2c1 [Compound 137]
31 | 167.5 to 169 | 99.6 | ≤ 10 | CCn1c(Oc2ccc(OC)cc2)nnc1[C@@H](C)NS(=O)(=O)c1ccc2c(Cl)cccc2c1 [Compound 138]
32 | 174 to 177 | 101 | ≤ 10 | CCn1c(Oc2ccc(Cl)cc2)nnc1[C@@H](C)NS(=O)(=O)c1ccc2c(Cl)cccc2c1 [Compound 139]
33 | 110 to 119 | 102 | ≤ 10 | CCn1c(Oc2ccc(OC)cc2)nnc1[C@@H](C)NS(=O)(=O)c1ccc2ccccc2c1 [Compound 140]
34 | 169 to 173 | 105 | ≤ 35 | CCn1c(Oc2ccc(Cl)cc2)nnc1[C@@H](C)NS(=O)(=O)c1ccc2ccccc2c1 [Compound 141]
